Values of other authors as cited in patent publication US20040082521A1, “Novel formulations of digitalis glycosides for treating cell-proliferative and other diseases” (Azaya Therapeutics Inc., priority 2002, published 2004).

Key:
[1] = tested on: FGF-2 release from PC3 cells; conditions: 0.1 ng/mL
[2] = tested on: FGF-2 release from DU145 cells; conditions: 0.1 ng/mL
[3] = tested on: various cancer cell lines
[4] = tested on: human cancer cells
[5] = tested on: androgen-independent human prostate cancer cell lines; conditions: for apoptosis: in vitro
[6] = tested on: NF-κB
[7] = tested on: AP-1
[8] = tested on: c-Jun NH2terminal kinase
[9] = tested on: human malignant cell lines; conditions: for growth and apoptosis: non-toxic concentrations

For CO[C@H]1C[C@H](O[C@H]2CC[C@@]3(C)[C@H](CC[C@@H]4[C@@H]3CC[C@]3(C)[C@@H](C5=CC(=O)OC5)[C@@H](OC(C)=O)C[C@]43O)C2)O[C@@H](C)[C@@H]1O [Oleandrin, 16b-acetoxy-3b-[(2,6-dideoxy-3-0-methyl-a2-L-arabino-hexopyranosyl)oxy]14-hydroxy-5β, 14β-card-20(22)-enolide], the “inhibition of FGF-2 release” value [1] is given as 45.7%, the “inhibition of FGF-2 release” value [2] is given as 49.9% and the anti-cancer activities [3] is given as “significant anti-cancer activities”. For the same molecule, the cell-killing potency ([4]; comparison Oleandrin vs water extract) was “greater than that of the water extract”, the cell killing ([4]; human cancer cells) was “able to induce cell killing” and the caspase activation ([5]; cleavage of poly (ADP-ribose) polymerase, hydrolysis of DEVD-pNA) was “promoted caspase activation”. For the same molecule, the apoptosis [5] was “induce apoptosis”, the “TNF-induced activation of NF-κB” value ([6]; TNF-induced) was “blocked” and the “NF-κB activation induced by phorbol ester and lipopolysaccharide” value ([6]; phorbol ester and lipopolysaccharide) was “blocked”. The “NF-κB-dependent reporter gene transcription activated by TNF” value ([6]; reporter gene) was “suppressed”, the “AP-1 activation induced by TNF and other agents” value [7] was “blocked” and the “TNF-induced activation of c-Jun NH2terminal kinase” value [8] was “inhibited”. The “elimination from the body” value (in vivo) was “one to two” and the “distribution in the body” value (when ingested) was “widely distributed in the body”.

In the case of C[C@@H]1O[C@@H](O[C@H]2C[C@@H](O)[C@]3(CO)[C@H]4[C@H](O)C[C@]5(C)[C@@H](C6=CC(=O)OC6)CC[C@]5(O)[C@@H]4CC[C@]3(O)C2)[C@H](O)[C@H](O)[C@H]1O [Ouabain, reference compound], the apoptosis [5] is given as “induce apoptosis”.

For CO[C@@H]1C[C@H](O[C@H]2CC[C@@]3(C)[C@H](CC[C@@]45O[C@@]46CC[C@H](C4=CC(=O)OC4)[C@@]6(C)CC[C@H]35)C2)O[C@H](C)[C@@H]1O [adynerin], the anti-cancer activities [3] is listed as “significant anti-cancer activities”.

In the case of C[C@H]1O[C@@H](O[C@H]2[C@@H](O)C[C@H](O[C@H]3[C@@H](O)C[C@H](O[C@H]4CC[C@@]5(C)[C@H](CC[C@@H]6[C@@H]5CC[C@]5(C)[C@@H](C7=CC(=O)OC7)CC[C@]65O)C4)O[C@@H]3C)O[C@@H]2C)C[C@H](O)[C@@H]1O [digitoxin], the apoptosis-inducing effect ([9]; in vitro, digitoxin vs digoxin) is given as “more potent for digitoxin than for digoxin” and the growth and apoptosis [9] is given as “inhibits growth and induce apoptosis”.

For C[C@H]1O[C@@H](O[C@H]2[C@@H](O)C[C@H](O[C@H]3[C@@H](O)C[C@H](O[C@H]4CC[C@@]5(C)[C@H](CC[C@@H]6[C@@H]5C[C@@H](O)[C@]5(C)[C@@H](C7=CC(=O)OC7)CC[C@]65O)C4)O[C@@H]3C)O[C@@H]2C)C[C@H](O)[C@@H]1O [digoxin, reference compound], the growth and apoptosis [9] is listed as “inhibits growth and induce apoptosis” and the apoptosis [5] is listed as “induce apoptosis”.

In the case of C[C@H]1[C@H](C)CC[C@]2(C(=O)O)CC[C@]3(C)C(=CC[C@@H]4[C@@]5(C)CC[C@H](O)C(C)(C)[C@@H]5CC[C@]43C)[C@H]12 [ursolic acid], the anti-cancer activities [3] is listed as “significant anti-cancer activities”.
